Assay results taken from ChEMBL document CHEMBL4002591 (J Med Chem, 2017).

Experiments:
[1] = molecular target: T1, Poly [ADP-ribose] polymerase tankyrase-1 (Homo sapiens, UniProt O95271); experiment: Inhibition of recombinant human N-terminal GST-tagged TNKS1 (1001 to 1327 residues) expressed in baculovirus infected sf9 cells using TACS-Sapphire as substrate measured after 30 mins by colorimetric assay
T1 sequence (O95271 whole entry): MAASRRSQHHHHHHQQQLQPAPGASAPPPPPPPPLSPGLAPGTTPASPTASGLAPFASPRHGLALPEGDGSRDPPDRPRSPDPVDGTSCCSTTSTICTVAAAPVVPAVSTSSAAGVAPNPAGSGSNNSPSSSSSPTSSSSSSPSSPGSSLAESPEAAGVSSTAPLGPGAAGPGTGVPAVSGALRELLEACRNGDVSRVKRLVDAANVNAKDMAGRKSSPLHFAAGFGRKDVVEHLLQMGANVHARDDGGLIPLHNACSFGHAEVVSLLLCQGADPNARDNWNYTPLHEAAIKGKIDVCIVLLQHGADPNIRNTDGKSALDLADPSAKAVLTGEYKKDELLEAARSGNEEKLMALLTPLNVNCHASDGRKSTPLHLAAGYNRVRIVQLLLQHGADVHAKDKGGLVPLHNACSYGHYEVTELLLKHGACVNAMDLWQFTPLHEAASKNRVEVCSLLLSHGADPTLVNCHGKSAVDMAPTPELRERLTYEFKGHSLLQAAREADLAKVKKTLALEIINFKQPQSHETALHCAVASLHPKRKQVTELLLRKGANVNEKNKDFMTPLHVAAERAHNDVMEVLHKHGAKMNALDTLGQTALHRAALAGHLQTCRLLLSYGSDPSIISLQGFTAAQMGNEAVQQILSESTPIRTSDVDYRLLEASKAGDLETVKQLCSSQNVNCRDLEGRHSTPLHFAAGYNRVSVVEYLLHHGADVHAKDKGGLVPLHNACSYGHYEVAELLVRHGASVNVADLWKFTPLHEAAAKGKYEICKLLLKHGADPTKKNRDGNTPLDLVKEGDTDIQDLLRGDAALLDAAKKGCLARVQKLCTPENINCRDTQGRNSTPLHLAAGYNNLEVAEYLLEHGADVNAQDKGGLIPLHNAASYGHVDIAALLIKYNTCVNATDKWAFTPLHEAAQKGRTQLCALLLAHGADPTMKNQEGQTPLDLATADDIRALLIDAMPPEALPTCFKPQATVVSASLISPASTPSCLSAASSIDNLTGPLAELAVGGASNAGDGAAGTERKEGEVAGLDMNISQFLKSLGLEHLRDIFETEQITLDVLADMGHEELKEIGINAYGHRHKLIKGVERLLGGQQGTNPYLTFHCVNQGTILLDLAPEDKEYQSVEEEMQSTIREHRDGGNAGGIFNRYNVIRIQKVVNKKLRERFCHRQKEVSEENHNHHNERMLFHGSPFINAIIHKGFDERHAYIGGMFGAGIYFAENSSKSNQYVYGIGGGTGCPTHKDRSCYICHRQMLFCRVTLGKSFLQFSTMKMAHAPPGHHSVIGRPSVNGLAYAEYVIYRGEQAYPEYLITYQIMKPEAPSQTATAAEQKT

[2] = molecular target: Poly [ADP-ribose] polymerase 1 (Homo sapiens, UniProt P09874); experiment: Inhibition of full length recombinant human N-terminal GST-tagged PARP1 expressed in Baculovirus infected Sf9 cells using TACS-Sapphire as substrate measured after 1 hr by colorimetric assay
Poly [ADP-ribose] polymerase 1, sequence (P09874 whole entry, the tested form may be a part): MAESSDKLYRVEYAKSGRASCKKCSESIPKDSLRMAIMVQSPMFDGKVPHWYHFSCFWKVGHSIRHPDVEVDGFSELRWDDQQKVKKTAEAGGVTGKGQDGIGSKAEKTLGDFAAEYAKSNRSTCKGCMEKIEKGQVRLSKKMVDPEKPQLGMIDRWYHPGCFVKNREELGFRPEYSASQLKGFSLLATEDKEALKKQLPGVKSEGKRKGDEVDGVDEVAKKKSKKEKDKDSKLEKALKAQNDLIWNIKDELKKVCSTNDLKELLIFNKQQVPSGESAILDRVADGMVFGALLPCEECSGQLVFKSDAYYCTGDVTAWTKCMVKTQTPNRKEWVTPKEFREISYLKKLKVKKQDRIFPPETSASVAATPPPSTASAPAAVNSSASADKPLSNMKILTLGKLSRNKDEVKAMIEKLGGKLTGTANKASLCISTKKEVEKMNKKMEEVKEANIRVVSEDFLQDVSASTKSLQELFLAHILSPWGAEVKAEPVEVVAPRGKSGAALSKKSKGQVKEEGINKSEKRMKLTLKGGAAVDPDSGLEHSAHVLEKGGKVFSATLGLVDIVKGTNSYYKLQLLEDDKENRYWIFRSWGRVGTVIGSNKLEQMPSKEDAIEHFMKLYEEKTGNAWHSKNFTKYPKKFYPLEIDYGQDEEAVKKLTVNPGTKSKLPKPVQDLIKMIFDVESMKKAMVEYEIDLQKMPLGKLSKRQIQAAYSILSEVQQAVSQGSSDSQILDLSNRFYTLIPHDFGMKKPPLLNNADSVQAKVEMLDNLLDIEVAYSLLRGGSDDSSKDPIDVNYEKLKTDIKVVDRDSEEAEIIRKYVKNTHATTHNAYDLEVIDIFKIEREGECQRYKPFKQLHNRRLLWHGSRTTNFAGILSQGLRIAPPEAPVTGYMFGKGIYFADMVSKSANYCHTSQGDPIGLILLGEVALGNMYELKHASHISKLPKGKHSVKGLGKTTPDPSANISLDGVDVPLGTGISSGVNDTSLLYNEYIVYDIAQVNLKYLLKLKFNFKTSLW

[3] = molecular target: Poly [ADP-ribose] polymerase 2 (Homo sapiens, UniProt Q9UGN5); experiment: Inhibition of recombinant human N-terminal GST-tagged PARP2 (2 to 583 residues) expressed in baculovirus infected Sf9 cells measured after 1 hr by chemiluminescence assay
Poly [ADP-ribose] polymerase 2, sequence (Q9UGN5 whole entry, the tested form may be a part): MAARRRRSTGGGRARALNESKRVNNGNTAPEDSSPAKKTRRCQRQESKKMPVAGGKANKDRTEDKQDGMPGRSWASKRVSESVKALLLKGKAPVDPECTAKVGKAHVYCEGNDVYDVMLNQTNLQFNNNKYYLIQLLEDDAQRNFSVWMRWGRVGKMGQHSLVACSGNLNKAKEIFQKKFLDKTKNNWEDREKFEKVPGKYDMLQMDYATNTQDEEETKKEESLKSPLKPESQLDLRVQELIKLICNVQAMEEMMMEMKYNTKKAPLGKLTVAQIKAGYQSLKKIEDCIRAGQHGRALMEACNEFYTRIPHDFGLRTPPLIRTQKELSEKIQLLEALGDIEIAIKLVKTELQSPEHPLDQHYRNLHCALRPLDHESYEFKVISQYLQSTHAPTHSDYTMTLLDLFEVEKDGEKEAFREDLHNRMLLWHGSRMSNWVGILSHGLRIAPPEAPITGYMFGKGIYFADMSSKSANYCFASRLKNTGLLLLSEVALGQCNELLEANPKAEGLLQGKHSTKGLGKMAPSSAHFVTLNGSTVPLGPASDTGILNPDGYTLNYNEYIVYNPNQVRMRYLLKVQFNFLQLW

[4] = molecular target: T2, Poly [ADP-ribose] polymerase tankyrase-2 (Homo sapiens, UniProt Q9H2K2); experiment: Inhibition of recombinant human N-terminal His-GST-tagged TNKS2 (849 to 1166 residues) expressed in baculovirus infected Sf9 cells using biotinylated NAD+ as substrate measured after 2 hrs
T2 sequence (Q9H2K2 whole entry): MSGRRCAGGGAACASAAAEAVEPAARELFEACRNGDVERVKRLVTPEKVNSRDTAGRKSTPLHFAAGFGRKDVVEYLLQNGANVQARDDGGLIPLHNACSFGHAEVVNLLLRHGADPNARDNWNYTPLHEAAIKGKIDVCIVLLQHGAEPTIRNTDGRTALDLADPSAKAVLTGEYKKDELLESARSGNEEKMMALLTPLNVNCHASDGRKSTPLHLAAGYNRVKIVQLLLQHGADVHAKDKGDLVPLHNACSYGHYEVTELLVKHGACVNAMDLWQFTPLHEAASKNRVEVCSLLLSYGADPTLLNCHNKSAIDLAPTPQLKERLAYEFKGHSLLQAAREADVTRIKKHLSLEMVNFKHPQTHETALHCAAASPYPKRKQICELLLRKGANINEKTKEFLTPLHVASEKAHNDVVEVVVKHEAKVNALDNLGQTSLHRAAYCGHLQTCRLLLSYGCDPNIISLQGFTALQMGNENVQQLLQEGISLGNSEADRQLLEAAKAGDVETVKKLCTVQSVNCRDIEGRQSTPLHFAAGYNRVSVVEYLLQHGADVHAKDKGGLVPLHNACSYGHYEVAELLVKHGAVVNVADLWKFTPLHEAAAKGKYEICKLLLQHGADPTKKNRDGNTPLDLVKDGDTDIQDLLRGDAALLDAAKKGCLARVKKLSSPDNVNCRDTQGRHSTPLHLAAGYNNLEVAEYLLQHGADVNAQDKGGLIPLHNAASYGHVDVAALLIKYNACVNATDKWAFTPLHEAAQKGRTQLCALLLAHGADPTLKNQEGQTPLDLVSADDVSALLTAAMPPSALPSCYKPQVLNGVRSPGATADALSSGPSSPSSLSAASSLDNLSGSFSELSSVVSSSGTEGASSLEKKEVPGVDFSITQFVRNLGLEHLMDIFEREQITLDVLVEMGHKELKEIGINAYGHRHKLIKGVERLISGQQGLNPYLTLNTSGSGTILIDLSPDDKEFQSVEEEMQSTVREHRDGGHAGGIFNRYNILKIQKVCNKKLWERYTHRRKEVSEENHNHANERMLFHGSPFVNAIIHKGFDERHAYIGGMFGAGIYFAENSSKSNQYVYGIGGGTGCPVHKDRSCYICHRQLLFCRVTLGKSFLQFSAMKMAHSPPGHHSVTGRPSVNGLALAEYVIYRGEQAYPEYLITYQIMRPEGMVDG

IC50 [1] [µM]	IC50 ([2]; read-out: IC50) [µM]	IC50 [3] [µM]	IC50 [4] [µM]	IC50 ([2]; read-out: pIC50 (converted)) [µM]	Structure (SMILES)
0.343	> 100	> 100			O=C(Nc1cccc2cccnc12)c1ccc(N2C(=O)[C@@H]3[C@@H]4CC[C@@H](C4)[C@@H]3C2=O)cc1
> 100	1	0.145	> 100	6.61	Cc1cccc2c(=O)[nH]c(CCC(=O)O)nc12
> 100	> 100				Nc1ccc(C(=O)Nc2cccc3cccnc23)cc1
> 100	6.7	0.125	> 100		O=C(O)CCc1nc(O)c2ccccc2n1
